Laboratory results published in US7241581B2, “Methods of identifying compounds that modulate IL-4 receptor-mediated IgE synthesis utilizing a c-MYC protein” (Rigel Pharmaceuticals, Inc., priority 2002, dated 2007).
Values joined by “and” are separate entries in the source; they are usually repeats but may differ in a detail not shown here. Equal entries are not always repeated.

Tests used:
germline ε promoter = experiment: Functional profile of BR10A1 wt and mutants in the A5T4 reporter cell line; assay type: cell-based, human; conditions: for Reporter Ratio: A5T4 reporter line; for functional category as compared to the activity of the wild type peptide: based on reporter ratio, % change calculated after subtracting 1.0 from the ratios
Protocol: Following infection, the library was enriched for cells expressing peptides that inhibit IL-4 induced ε transcription as generally outlined in the top half of FIG. 3 and sorted by FACS into single cell clones. The clones were then screened as generally illustrated in the lower half of FIG. 3. Briefly, for screening, each clone was divided into two populations and one population was treated with Dox (10 ng/ml). After 5 days, both populations were stimulated with IL-4 (final conc. 60 U/mL; PeptroTech, Inc.) and, after 3 more days, both populations were analyzed by FACS to measure BFP and GFP fluorescence. FACS data were converted to a “reporter ratio”, which is defined for this purpose as the ratio of the geometric mean of GFP fluorescence of the +IL-4/+Dox to the +IL-4/−Dox populations. Cells expressing a peptide that inhibits germline ε transcription have a reporter ratio of ≧1.1. A reporter ratio of ≧1.2 is indicative of strong inhibition.
The ability of peptide BR10A1 wt to inhibit germline ε transcription was confirmed in naive cells. Briefly, Phoenix cells were transfected with a retroviral vector encoding a BFP-BR10A1 wt peptide fusion as described in WO 99/58663 and WO 97/27213. Naïve A5T4 cells were infected with the resultant virions and grown for 3 days. The infected cells were stimulated with IL-4 (60 U/mL) and, after 3 days, the cells were assessed by FACS for BFP and GFP. […] The BFP fluorescence data corresponding to the BFP^+ and BFP^− populations are provided in Panel A. The GFP fluorescence data corresponding to the BFP^+ and BFP^− populations are presented in Panel B. The reporter ratio for this purpose is determined as the geometric mean of the GFP fluorescence of the BFP^− population divided by the geometric mean of the GFP fluorescence of the BFP^+ population. The reporter ratio for the BR10A1 in this re-infection assay was 1.27.
A collection of BR10A1 mutants was generated by replacing single or double amino acid residues in the sequence of BR10A1 wt with a different amino acid, typically an alanine or glycine, as described in copending application Ser. No.10/095,659, entitled Methods of Identifying Protein Targets, filed Mar. 8, 2002 . The functional profiles for the mutants derived from BR10A1 wt was obtained by constructing and screening for activity in the A5T4 reporter cell line in the manner described above. The activity of each mutant at the germline ε promoter is reflected in the reporter ratio as described above. The reporter ratios were the functional values that were used to develop the functional profiles. Measurement of the reporter ratios of the mutant peptides was carried out in a number of separate experiments, each time comparing the value of cells transfected with mutant peptide to that of cells transfected with control WT peptide done at the same time. The reporter ratios of the control WT peptide can vary depending upon a number of factors including the infectivity or the state of the infected cells at the time of infection.
TABLE 2 depicts the amino acid sequences (the dual alanine mutations are underlined) of the mutants tested and the measured reporter ratios when screening in the A5T4 reporter line.
Comparison of the interaction and functional profiles was performed by categorizing the mutants of BR10A1 based on the functional and interaction assays. Based on the reporter ratio, each mutant was categorized into one of four functional categories: (1) reduction of function (ROF); (2) loss of function (LOF); (3) increase of function (IOF) or (4) functionally neutral (N) as compared to the activity of the wild type peptide, here BR10A1 wt. As mentioned previously, cells expressing a peptide that inhibits germline ε transcription have reporter ratios of ≧1.1. Cells expressing a loss of function (LOF) mutant have a reporter ratio of <1.11. […] Functionally neutral mutants have reporter ratios that fall within ±50% of that of the BR10A1 wt peptide. […]

human c-Myc protein = target: T1, human c-Myc protein (Homo sapiens, UniProt P01106); experiment: Yeast two hybrid (YTH) interaction assay, β-galactosidase; assay type: binding
T1 construct: expressed in transfected cells; prey cDNA library made from the A5T4 reporter line (human BJAB B-cells)
T1 sequence (P01106 whole entry): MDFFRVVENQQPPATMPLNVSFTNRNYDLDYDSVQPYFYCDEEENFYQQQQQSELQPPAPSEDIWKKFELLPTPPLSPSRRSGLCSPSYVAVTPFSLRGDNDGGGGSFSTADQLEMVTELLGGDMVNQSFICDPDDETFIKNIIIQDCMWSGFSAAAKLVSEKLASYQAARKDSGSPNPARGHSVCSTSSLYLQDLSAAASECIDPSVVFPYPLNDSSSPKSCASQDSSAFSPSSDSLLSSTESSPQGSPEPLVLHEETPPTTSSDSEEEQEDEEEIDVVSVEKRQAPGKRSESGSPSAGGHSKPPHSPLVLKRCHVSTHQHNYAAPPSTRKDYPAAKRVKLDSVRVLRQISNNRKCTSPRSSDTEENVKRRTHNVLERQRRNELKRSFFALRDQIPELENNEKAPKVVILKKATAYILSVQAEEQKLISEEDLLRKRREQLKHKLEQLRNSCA
Protocol: Potential binding partners for peptide BR10A1 wt were identified in a β-galactosidase yeast two-hybrid (YTH) assay using peptide BR10A1 wt as bait and a cDNA library constructed from the A5T4 reporter cell line as prey. Binding was assessed by β-galactosidase quantification using BetaFluor (Novagen) as a substrate. A negative interaction control (no cDNA fused downstream of the GAL4 activation domain sequence) was also run. A general outline of the YTH assay is illustrated in FIG. 5A. Following clustering, filtering to remove non-specific bait hits (e.g., GFP and BFP), singletons and clusters recognized by 10 or more cDNA baits (based upon historical YTH assays), and prioritization, 30 prey clones were identified as hits.
Potential targets identified in the YTH assay were reconfirmed as generally outlined in FIG. 6. The cDNA clones identified as hits in the YTH assay were purified and rescreened for interaction with the BR10A1 wt peptide in a YTH assay. The hit clones were also screened in a control assay for interaction with the BFP using a vector (pGBKT7) that contained only the BFP and not the BR10A1 peptide. At this stage, 25 putative target clones remained.
The interaction of BR10A1 wt peptide and its mutants with the clones identified as potential targets for the peptide BR10A1 wt was then quantified in a β-galactosidase YTH assay. The YTH assay was performed in the manner described above. A general outline of this YTH assay is illustrated in FIG. 5B. For each clone tested, an interaction profile was developed by comparing the β-galactosidase activity of each mutant to that of the wild type peptide as described above.
The interaction of selected IOF, ROF and LOF mutants with different polypeptides encoded by the putative target clones were quantified using the YTH assay described above. Based on the YTH assay, for each putative target, the mutants were categorized into the following four interaction categories: (1) reduction of interaction (ROI); (2) loss of interaction (LOI); (3) increase of interaction (IOI); and (4) interactionally neutral (N), by assessing the binding affinity ratio of the mutant peptide and the wild type peptide (β-gal activity of mutant/wild type) to the putative target. The selection criteria for categorizing the interactions is shown on FIG. 8.

[1] = separate experiment with its own WT control
[2] = second value column (separate experiment with its own WT control)

## MQRRESCITRSVEEGWGLAALGP (peptide encoded by random oligo-BR10A1FY) [dual alanine mutant of BR10A1 wt]
Germline ε promoter; [1]
  Reporter Ratio: 1.34

## MQRRESAATRSVEEGWGLFYLGP (peptide encoded by random oligo-BR10A1CI) [dual alanine mutant of BR10A1 wt]
Germline ε promoter; [2]
  Reporter Ratio: 1.16
Germline ε promoter
  functional category as compared to the activity of the wild type peptide: ROF (a reduction of function (ROF) of mutant shows a >50% decrease in reporter ratio)
Human c-Myc protein
  binding to human c-Myc protein in yeast two hybrid interaction assay: found to bind

## MQRRESCITRSVEEGWAAFYLGP (peptide encoded by random oligo-BR10A1GL) [dual alanine mutant of BR10A1 wt]
Germline ε promoter; [2]
  Reporter Ratio: 1.44
Human c-Myc protein
  binding to human c-Myc protein in yeast two hybrid interaction assay: found to bind

## MQRRAACITRSVEEGWGLFYLGP (peptide encoded by random oligo-BR10A1ES) [dual alanine mutant of BR10A1 wt]
Germline ε promoter; [1]
  Reporter Ratio: 1.50
Human c-Myc protein
  binding to human c-Myc protein in yeast two hybrid interaction assay: found to bind

## MQAAESCITRSVEEGWGLFYLGP (peptide encoded by random oligo-BR10A1RR) [dual alanine mutant of BR10A1 wt]
Germline ε promoter; first value column (separate experiment with its own WT control)
  Reporter Ratio: 1.32

## MQRRESCITRSVAAGWGLFYLGP (peptide encoded by random oligo-BR10A1EE) [dual alanine mutant of BR10A1 wt]
Germline ε promoter; [2]
  Reporter Ratio: 1.39

## MQRRESCITRSVEEGWGLFY (peptide encoded by random oligo-BR10A1STOP) [C-terminally truncated form of BR10A1 wt]
Germline ε promoter; [1]
  Reporter Ratio: 1.34

## MQRRESCIAASVEEGWGLFYLGP (peptide encoded by random oligo-BR10A1TR) [dual alanine mutant of BR10A1 wt]
Germline ε promoter; [2]
  Reporter Ratio: 1.62
Germline ε promoter
  functional category as compared to the activity of the wild type peptide: IOF (An increase of function mutant (IOF) shows a >50% increase in reporter ratio)
Human c-Myc protein
  binding to human c-Myc protein in yeast two hybrid interaction assay: found to bind

## MQRRESAATRSVEEAAGLFYLGP (peptide encoded by random oligo-BR10A1CIGW) [mutant of BR10A1 wt with alanines at CI and GW]
Germline ε promoter; fourth value column (separate experiment with its own WT control)
  Reporter Ratio: 1.08 and 1.15
Germline ε promoter
  functional category as compared to the activity of the wild type peptide: LOF/ROF

## MQRRESCITRSVEEAAGLFYLGP (peptide encoded by random oligo-BR10A1GW) [dual alanine mutant of BR10A1 wt]
Germline ε promoter; [2]
  Reporter Ratio: 1.23

## AARRESCITRSVEEGWGLFYLGP (peptide encoded by random oligo-BR10A1MQ) [dual alanine mutant of BR10A1 wt]
Germline ε promoter; [1]
  Reporter Ratio: 1.57
